Experimental data taken from patent publication US12351574B2, “Selective ligands for modulation of GIRK channels” (Northeastern University, priority 2018, dated 2025).

Target: T1, GIRK1/4(V-I) (Homo sapiens, UniProt P48544+P48549, V92I)
T1 construct: expressed in transfected cells; host or cells: Xenopus laevis oocytes (cRNA injection)
T1 sequence (P48549 1-501): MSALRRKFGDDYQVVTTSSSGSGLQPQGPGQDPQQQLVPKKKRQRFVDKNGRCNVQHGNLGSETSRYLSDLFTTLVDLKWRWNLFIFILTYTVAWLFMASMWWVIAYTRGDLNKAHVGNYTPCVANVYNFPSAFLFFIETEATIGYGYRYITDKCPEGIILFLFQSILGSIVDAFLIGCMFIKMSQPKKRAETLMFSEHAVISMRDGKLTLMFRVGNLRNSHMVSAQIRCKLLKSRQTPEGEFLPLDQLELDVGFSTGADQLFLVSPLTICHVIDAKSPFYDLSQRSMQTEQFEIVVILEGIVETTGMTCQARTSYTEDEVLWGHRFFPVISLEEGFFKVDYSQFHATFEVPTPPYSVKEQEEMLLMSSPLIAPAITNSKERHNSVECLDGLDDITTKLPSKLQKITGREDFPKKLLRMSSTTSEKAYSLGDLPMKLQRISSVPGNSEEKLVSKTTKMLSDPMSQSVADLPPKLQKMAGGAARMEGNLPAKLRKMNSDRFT
T1 sequence (P48544 1-419 V92I): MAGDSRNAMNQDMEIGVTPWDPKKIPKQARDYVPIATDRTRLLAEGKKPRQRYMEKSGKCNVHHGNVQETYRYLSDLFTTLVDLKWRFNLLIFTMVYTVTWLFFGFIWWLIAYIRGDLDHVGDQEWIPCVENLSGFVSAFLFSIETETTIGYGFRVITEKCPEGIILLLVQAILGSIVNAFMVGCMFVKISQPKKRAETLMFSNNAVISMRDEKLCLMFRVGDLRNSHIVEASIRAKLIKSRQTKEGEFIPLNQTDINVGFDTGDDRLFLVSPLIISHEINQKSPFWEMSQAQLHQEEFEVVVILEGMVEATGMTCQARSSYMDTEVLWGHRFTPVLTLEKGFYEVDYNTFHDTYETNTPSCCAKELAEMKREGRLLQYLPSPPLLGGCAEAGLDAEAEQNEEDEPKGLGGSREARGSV
Assay: TEVC in Xenopus oocytes, single mutant GIRK1/4(V-I)
Type: cell-based
Settings: GIRK1/4(V-I) single mutant
Text: Molecular biology: For Xenopus oocyte expression, human GIRK1 and human GIRK4 cDNAs were subcloned into pGEMHE. For mammalian expression, human GIRK1 and human GIRK4 cDNAs were subcloned into pcDNA3 and pcDNA3.1/V5-His B, respectively (Invitrogen). Mouse GIRK2 cDNA was subcloned in the dual-function vector, pXoom. Point mutations were introduced using a standard Pfu-based mutagenesis technique according to the QuikChange protocol (Agilent). Mutations were verified by sequencing.
Electrophysiology of oocytes: Whole-oocyte currents were measured by conventional two-electrode voltage clamp (TEVC) with a GeneClamp 500 amplifier (Axon Instruments). Agarose cushion microelectrodes were filled with 1.5% (w/v) agarose in 3 M KCl and were used with resistances between 0.1 and 1.5 megaohms. […] Barium-sensitive basal currents from both groups, 1) Vehicle, 2) single concentration at 10 μM and 3) multiple concentrations of ML297 or GAT compounds in the presence of HK solution, were assessed at −80 mV using TEVC. Barium-sensitive currents were normalized to average basal current in the vehicle solutions. The HK solution contained the following: 96 mM KCl, 1 mM NaCl, 1 mM MgCl2, 5 mM KOH/HEPES, pH 7.4. The barium solution consisted of HK+10 mM BaCl2. Five to ten oocytes from the same batch (same frog) were recorded for each group, and the experiments were repeated in at least four batches. Data acquisition and analysis were carried out using pClamp9 (Molecular Devices) and OriginPro (Microcal) software.
To test these computational predictions, the inventors mutated each or both of the two M1 key wild-type GIRK4 subunit residues to the corresponding GIRK2 residues (GIRK4-V92I, GIRK4-T94V, GIRK4-V92I/T94V or GIRK4-dm) and vice-versa the GIRK2 residues to the corresponding GIRK4 ones (GIRK2-I97V, GIRK2-V99T, GIRK2-I97V/V99T or GIRK2-dm) (FIG. 35). […]

EC50: 0.53 ± 0.15 µM
EMAX: 1.29±0.03
Emax (read-out: EMAX, % of the control GIRK1/2): 11%
Compound: Cc1cc(NC(=O)Nc2ccc(Br)s2)n(-c2ccccc2)n1 [GAT1508, 1-(5-bromothiophen-2-yl)-3-(3-methyl-1-phenyl-1H-pyrazol-5-yl)urea]
